In a compilation of properties of binary mixtures (doi:10.1016/j.molliq.2022.120983):

Assay: xn = mol fraction of the nth substance listed
Settings: 101.3 kPa

| viscosity (298.1 K, x1 = 0.0588) [mPa·s] | viscosity (298.1 K, x1 = 0.1232) [mPa·s] | viscosity (313 K, x1 = 0.0588) [mPa·s] | viscosity (313 K, x1 = 0.2726) [mPa·s] | viscosity (333 K, x1 = 0.1232) [mPa·s] | viscosity (333 K, x1 = 0.2726) [mPa·s] | viscosity (298.1 K, x1 = 0.0631) [mPa·s] | viscosity (298.1 K, x1 = 0.1317) [mPa·s] | viscosity (298.1 K, x1 = 0.2879) [mPa·s] | viscosity (313 K, x1 = 0.0631) [mPa·s] | viscosity (313 K, x1 = 0.1317) [mPa·s] | viscosity (313 K, x1 = 0.2879) [mPa·s] | viscosity (333 K, x1 = 0.0631) [mPa·s] | viscosity (333 K, x1 = 0.1317) [mPa·s] | viscosity (333 K, x1 = 0.2879) [mPa·s] | SMILES |
| --- | --- | --- | --- | --- | --- | --- | --- | --- | --- | --- | --- | --- | --- | --- | --- |
| 5 | 9.1 | 3.18 | 18.2 | 3.64 | 10.2 |  |  |  |  |  |  |  |  |  | C[C@H](N)C(=O)[O-].C[N+](C)(C)CCO + O |
|  |  |  |  |  |  | 4.09 | 10 | 20.9 | 2.73 | 6.4 | 12.3 | 1.82 | 3.64 | 7.3 | C[N+](C)(C)CCO.NCC(=O)[O-] + O |
